Values joined by “and” are separate entries in the source; they are usually repeats but may differ in a detail not shown here. Equal entries are not always repeated.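 Method: 48-hour compound exposure of cells in 96-well plates, five concentrations, linear interpolation of endpoints. GI50: concentration for 50% inhibition of growth. TGI denotes the concentration required for complete inhibition of growth.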
Experiments:
Experiment in all cases: NCI tumour cell line growth inhibition, 48 h
786-0 renal = test system: 786-0 renal
A498 renal = test system: A498 renal
A549 NSCLC = test system: A549 NSCLC
CAKI-1 renal = test system: CAKI-1 renal
CCRF-CEM leukemia = test system: CCRF-CEM leukemia
COLO 205 colon = test system: COLO 205 colon
DLD-1 colon = test system: DLD-1 colon
DMS 114 small cell lung = test system: DMS 114 small cell lung
DMS 273 small cell lung = test system: DMS 273 small cell lung
EKVX NSCLC = test system: EKVX NSCLC
HCC-2998 colon = test system: HCC-2998 colon
HCT-116 colon = test system: HCT-116 colon
HCT-15 colon = test system: HCT-15 colon
HL-60(TB) leukemia = test system: HL-60(TB) leukemia
HOP-62 NSCLC = test system: HOP-62 NSCLC
HOP-92 NSCLC = test system: HOP-92 NSCLC
HT29 colon = test system: HT29 colon
IGROV1 ovarian = test system: IGROV1 ovarian
K-562 leukemia = test system: K-562 leukemia
KM12 colon = test system: KM12 colon
KM20L2 colon = test system: KM20L2 colon
LOX IMVI melanoma = test system: LOX IMVI melanoma
LXFL 529 NSCLC = test system: LXFL 529 NSCLC
M14 melanoma = test system: M14 melanoma
M19-MEL melanoma = test system: M19-MEL melanoma
MALME-3M melanoma = test system: MALME-3M melanoma
MCF7 breast = test system: MCF7 breast
MOLT-4 leukemia = test system: MOLT-4 leukemia
NCI-H226 lung = test system: NCI-H226 lung
NCI-H23 lung = test system: NCI-H23 lung
NCI-H460 lung = test system: NCI-H460 lung
NCI-H522 lung = test system: NCI-H522 lung
NCI/ADR-RES ovarian = test system: NCI/ADR-RES ovarian
OVCAR-3 ovarian = test system: OVCAR-3 ovarian
OVCAR-4 ovarian = test system: OVCAR-4 ovarian
OVCAR-5 ovarian = test system: OVCAR-5 ovarian
OVCAR-8 ovarian = test system: OVCAR-8 ovarian
P388 leukemia = test system: P388 leukemia
P388/ADR leukemia = test system: P388/ADR leukemia
RPMI-8226 leukemia = test system: RPMI-8226 leukemia
RXF 393 renal = test system: RXF 393 renal
RXF-631 renal = test system: RXF-631 renal
SF-268 CNS = test system: SF-268 CNS
SF-295 CNS = test system: SF-295 CNS
SF-539 CNS = test system: SF-539 CNS
SK-MEL-2 melanoma = test system: SK-MEL-2 melanoma
SK-MEL-28 melanoma = test system: SK-MEL-28 melanoma
SK-MEL-5 melanoma = test system: SK-MEL-5 melanoma
SK-OV-3 ovarian = test system: SK-OV-3 ovarian
SN12C renal = test system: SN12C renal
SN12K1 renal = test system: SN12K1 renal
SNB-19 CNS = test system: SNB-19 CNS
SNB-75 CNS = test system: SNB-75 CNS
SNB-78 CNS = test system: SNB-78 CNS
SW-620 colon = test system: SW-620 colon
TK-10 renal = test system: TK-10 renal
U251 CNS = test system: U251 CNS
UACC-257 melanoma = test system: UACC-257 melanoma
UACC-62 melanoma = test system: UACC-62 melanoma
UO-31 renal = test system: UO-31 renal
XF 498 CNS = test system: XF 498 CNS

In the case of `CC1[C@@]2(CCC(C)(C)O2)O[C@@H]2C=C3C4CCC5Cc6nc7c(nc6C[C@@]5(C)C4C[C@H](O)[C@@]3(C)[C@]12O)CC1CCC2C3=C[C@H]4O[C@@]5(O[C@@](C)(CO)C[C@@H]5O)C(C)[C@@]4(O)[C@]3(C)[C@@H](O)CC2[C@]1(C)C7` (some centres not stated), the TGI (786-0 renal) is reported as 600 nM, the GI50 (A498 renal) is reported as 1.06 nM and the TGI (A498 renal) is reported as 140 nM and 42.6 nM. The GI50 (A549 NSCLC) was 2.8 nM, the TGI (A549 NSCLC) was 711 nM and the GI50 (CAKI-1 renal) was 19.5 nM. The TGI (CAKI-1 renal) was 660 nM, the GI50 (CCRF-CEM leukemia) was 1.7 nM and the TGI (CCRF-CEM leukemia) was 106 nM and 18 nM. For the same molecule, the GI50 (COLO 205 colon) was 14.1 nM, the TGI (COLO 205 colon) was 472 nM and 52.5 nM and the GI50 (DLD-1 colon) was 80.5 nM. For the same molecule, the TGI (DLD-1 colon) was 1110 nM, the GI50 (DMS 114 small cell lung) was 0.805 nM and the GI50 (DMS 273 small cell lung) was < 0.365 nM. For the same molecule, the GI50 (EKVX NSCLC) was 5.21 nM, the TGI (EKVX NSCLC) was 875 nM and 462 nM and the GI50 (HCC-2998 colon) was 401 nM. The TGI (HCC-2998 colon) was 860 nM, the GI50 (HCT-116 colon) was 27.3 nM and the TGI (HCT-116 colon) was 719 nM and 493 nM. For the same molecule, the GI50 (HCT-15 colon) was 9.07 nM, the TGI (HCT-15 colon) was 732 nM and 75 nM and the GI50 (HL-60(TB) leukemia) was < 0.365 nM. The TGI (HL-60(TB) leukemia) was 331 nM and 46.5 nM, the GI50 (HOP-62 NSCLC) was 0.389 nM and the GI50 (HOP-92 NSCLC) was 2.28 nM. The GI50 (HT29 colon) was 1.79 nM, the GI50 (IGROV1 ovarian) was 8.31 nM and the TGI (IGROV1 ovarian) was 590 nM. The GI50 (K-562 leukemia) was 10.3 nM, the TGI (K-562 leukemia) was 440 nM and 445 nM and the GI50 (KM12 colon) was 44.6 nM. For the same molecule, the TGI (KM12 colon) was 624 nM and 572 nM, the GI50 (KM20L2 colon) was 2.89 nM and the TGI (KM20L2 colon) was 478 nM and 89 nM. The GI50 (LOX IMVI melanoma) was 10.6 nM, the TGI (LOX IMVI melanoma) was 695 nM and 366 nM and the TGI (LXFL 529 NSCLC) was 82.4 nM. The TGI (M14 melanoma) was 122 nM, the GI50 (M19-MEL melanoma) was 336 nM and the TGI (M19-MEL melanoma) was 791 nM. It also gave a GI50 (MALME-3M melanoma) of 10.1 nM, a TGI (MCF7 breast) of 524 nM and a GI50 (MOLT-4 leukemia) of 1.41 nM. For the same molecule, the GI50 (NCI-H226 lung) was 10.7 nM, the TGI (NCI-H226 lung) was 411 nM and 806 nM and the GI50 (NCI-H23 lung) was 3.08 nM. For the same molecule, the GI50 (NCI-H460 lung) was 1.35 nM, the TGI (NCI-H460 lung) was 365 nM and 39.2 nM and the GI50 (NCI-H522 lung) was 13.2 nM. The TGI (NCI-H522 lung) was 418 nM and 80.4 nM, the TGI (NCI/ADR-RES ovarian) was 2050 nM and the GI50 (OVCAR-3 ovarian) was 435 nM. It also gave a TGI (OVCAR-3 ovarian) of 1110 nM, a GI50 (OVCAR-4 ovarian) of 92.1 nM and a TGI (OVCAR-4 ovarian) of 810 nM. It also gave a GI50 (OVCAR-5 ovarian) of 5.86 nM, a GI50 (OVCAR-8 ovarian) of 426 nM and a TGI (OVCAR-8 ovarian) of 1200 nM. For the same molecule, the TGI (P388 leukemia) was 734 nM, the TGI (P388/ADR leukemia) was 1160 nM and the TGI (RPMI-8226 leukemia) was 32 nM. The GI50 (RXF 393 renal) was < 0.365 nM, the TGI (RXF-631 renal) was 213 nM and the GI50 (SF-268 CNS) was 4.64 nM. For the same molecule, the TGI (SF-268 CNS) was 904 nM and 125 nM, the GI50 (SF-295 CNS) was < 0.365 nM and the GI50 (SF-539 CNS) was 3.03 nM. For the same molecule, the TGI (SF-539 CNS) was 41.8 nM and 41.5 nM, the GI50 (SK-MEL-2 melanoma) was 4.44 nM and the TGI (SK-MEL-28 melanoma) was 221 nM. The GI50 (SK-MEL-5 melanoma) was 16.5 nM, the TGI (SK-MEL-5 melanoma) was 370 nM and 84.1 nM and the GI50 (SK-OV-3 ovarian) was 1.78 nM. The GI50 (SN12C renal) was 421 nM, the TGI (SN12C renal) was 1190 nM and the TGI (SN12K1 renal) was 395 nM. The GI50 (SNB-19 CNS) was 41 nM, the TGI (SNB-19 CNS) was 808 nM and 820 nM and the GI50 (SNB-75 CNS) was < 0.365 nM. For the same molecule, the GI50 (SNB-78 CNS) was 1.5 nM, the TGI (SNB-78 CNS) was 464 nM and 312 nM and the GI50 (SW-620 colon) was 9.38 nM. The TGI (SW-620 colon) was 499 nM and 50.8 nM, the TGI (TK-10 renal) was 981 nM and the GI50 (U251 CNS) was 0.43 nM. For the same molecule, the GI50 (UACC-257 melanoma) was 26.5 nM, the TGI (UACC-257 melanoma) was 358 nM and 84.7 nM and the GI50 (UACC-62 melanoma) was 3.87 nM. It also gave a TGI (UO-31 renal) of 114 nM and a GI50 (XF 498 CNS) of 4.88 nM.

From PubChem BioAssay (NCI)
